Experimental data from PubChem BioAssay (NCI).
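Briefly, cells in 96-well plates were exposed to five compound concentrations for 48 h, and endpoints were estimated by linear interpolation. At the GI50, growth is halved. TGI: total growth inhibition.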

Key:
Test in all cases: growth of human tumour cells (NCI), 48 h
[1] = test system: MDA-MB-231 breast
[2] = test system: HOP-62 NSCLC
[3] = test system: KM12 colon
[4] = test system: SNB-19 CNS
[5] = test system: RPMI-8226 leukemia
[6] = test system: MOLT-4 leukemia
[7] = test system: A498 renal
[8] = test system: TK-10 renal
[9] = test system: NCI-H522 lung
[10] = test system: ACHN renal
[11] = test system: HS 578T breast

COc1cc(/C=C2\C(=O)N(c3cccc([N+](=O)[O-])c3)C(c3ccccc3)S2(=O)=O)cc(OC)c1OC (stereo unspecified)
TGI [1]: > 100 µM
TGI [2]: > 100 µM
TGI [3]: > 100 µM
TGI [4]: > 100 µM
TGI [5]: > 100 µM
TGI [6]: > 100 µM
TGI [7]: > 100 µM
TGI [8]: > 100 µM
TGI [9]: > 100 µM
TGI [10]: > 100 µM

O=c1[nH]/c(=C/c2ccc(OCc3ccccc3)cn2)c(=O)[nH]/c1=C/c1ccccc1
TGI [1]: > 100 µM
TGI [2]: > 100 µM
TGI [11]: > 100 µM
TGI [3]: > 100 µM
TGI [4]: > 100 µM
TGI [5]: > 100 µM
TGI [6]: > 100 µM
TGI [7]: > 100 µM
TGI [8]: > 100 µM
TGI [10]: > 100 µM

C=CCn1c(=O)c(C)cn(COCCO)c1=O
TGI [1]: > 100 µM
TGI [2]: > 100 µM
TGI [11]: > 100 µM
TGI [3]: > 100 µM
TGI [4]: > 100 µM
TGI [5]: > 100 µM
TGI [6]: > 100 µM
TGI [8]: > 100 µM
TGI [9]: > 100 µM
TGI [10]: > 100 µM

N#CCCN(CCC#N)c1ccc(/C=C2\N=C(c3ccccc3)N(c3ccc(F)cc3)C2=O)cc1
TGI [1]: > 100 µM
TGI [2]: > 100 µM
TGI [11]: > 100 µM
TGI [3]: > 100 µM
TGI [4]: > 100 µM
TGI [5]: > 100 µM
TGI [6]: > 100 µM
TGI [7]: > 100 µM
TGI [8]: > 100 µM
TGI [10]: > 100 µM

c1ccc(-c2csc3c4ccccc4c4ccccc4[n+]23)cc1
TGI [2]: 20.7 µM
TGI [3]: 3.36 µM
TGI [4]: 7.52 µM
TGI [5]: > 100 µM
TGI [6]: > 25.5 µM
TGI [7]: 33.4 µM
TGI [8]: 43.6 µM
TGI [9]: 7.12 µM
TGI [10]: 30.6 µM

C[C@H](c1ccccc1)N1C(=O)[C@@H](O)[C@H]1[C@H](CO)OCc1ccccc1
TGI [1]: > 100 µM
TGI [2]: > 100 µM
TGI [11]: > 100 µM
TGI [3]: > 100 µM
TGI [4]: > 100 µM
TGI [5]: > 100 µM
TGI [6]: > 100 µM
TGI [7]: > 100 µM
TGI [8]: > 100 µM
TGI [10]: > 100 µM

Nc1n(CC(=O)c2ccccc2)nc2sc(-c3ccccc3)n[n+]12
TGI [2]: 52.5 µM
TGI [11]: > 100 µM
TGI [3]: 39.3 µM
TGI [4]: > 100 µM
TGI [5]: 58.8 µM
TGI [6]: > 100 µM
TGI [7]: 86.9 µM
TGI [8]: > 100 µM
TGI [9]: 34.4 µM
TGI [10]: 29.6 µM

CC(=O)NC1C(OCc2ccccc2)OC(CO)C(O)C1OCC(=O)N1CCCC1C(=O)N[C@@H](CCC(=O)NCCCCNc1c2ccccc2nc2cccc([N+](=O)[O-])c12)C(N)=O (stereo partly specified)
TGI [2]: > 100 µM
TGI [11]: 74.8 µM
TGI [3]: > 100 µM
TGI [4]: 62.4 µM
TGI [5]: > 100 µM
TGI [6]: > 100 µM
TGI [7]: > 100 µM
TGI [8]: > 100 µM
TGI [10]: > 100 µM

CN1CCC(CNc2cc(C3(C(=O)Nc4cc(C(=O)Nc5ccc(Cl)c(C(F)(F)F)c5)ccc4F)CC3)ncn2)CC1
GI50 [1]: 1.42 µM
TGI [1]: 2.99 µM
GI50 [2]: 2 µM
TGI [2]: 3.97 µM
GI50 [11]: 1.99 µM
TGI [11]: 6.19 µM
GI50 [3]: 2.58 µM
TGI [3]: 6.91 µM
GI50 [6]: 2.03 µM
TGI [6]: 6.09 µM
GI50 [7]: 2.52 µM
TGI [7]: 7.87 µM
GI50 [8]: 3.89 µM
TGI [8]: 12.8 µM
GI50 [9]: 2.01 µM
TGI [9]: 4.55 µM
GI50 [10]: 2.16 µM
TGI [10]: 4.98 µM
